The values that follow come from US12325715B2, “Fluorous metal chelates compositions” (The Regents of the University of California, priority 2018, dated 2025).

Series [1] in a line: Intramolecular 19F NMR relaxation rates at 9.4 T. The following applies: 5 CF2 groups (precursors and Ga3+ chelate), ± s.e.m. The class given is physicochemical. An excerpt:
Intramolecular ^19F NMR relaxometry measurements of 5a isomers further confirmed the structural analyses. We observed that among Fe3+ chelates, 5a OOO isomer had the highest, and 5a PPP isomer had the lowest, R1 and R2 values (Table 3). Ortho-substitution caused a more drastic intramolecular PRE, by ˜3 orders of magnitude, compared to para-substitution due to the closer proximity of the Fe3+ paramagnetic center to the ortho position ([…]) compared to the para position ([…]).
NMR spectra and relaxation rates were recorded on a Bruker Ascend 400 MHz (9.4 T) spectrometer (Billerica, MA). Additional relaxation rate measurements were performed at 3 T using a GE750 (General Electric, Milwaukee, WI) clinical MRI system equipped with a custom dual-channel ^19F/1H 72 mm diameter volume coil (RAPID Biomedical, Rimpar, Germany). The ^19F NMR spectra were referenced to an internal standard, sodium trifluoroacetate (NaTFA, 0.1 wt %, −76.00 ppm, Sigma-Aldrich, T6508), which was placed in a separate sealed capillary tube within the NMR tube. Relaxation measurements were performed using a standard inversion recovery pulse sequence and a Carr-Purcell-Meiboom-Gill sequence with echo-time (TE) values in 12 linear increments. The T1 and T2 values were obtained by nonlinear fitting using MNova 6.0.2 software (Mestrelab, Escondido, CA). Fit errors were less than 5% of T1 and T2 values. For quantitative peak measurements, spectra were acquired using calibrated 90° pulses, 32,000 complex points, spectral window 0 to −200 ppm, relaxation delay 2.5 s, and 128 averages. Spectra were processed in MNova with manual phase correction and Whittaker smoother baseline correction (filter=1 ppm). Relaxation parameters were measured for six middle CF2 peaks of PFOB, spanning ˜10 ppm, which account for 12 out of 17 F atoms in the molecule. To assay nanoemulsion uptake (^19F/cell) using NMR, an aliquot of 1×10^6 cells were pelleted and resuspended in 0.1 mL of lysis solution (0.5% Triton X, 100 mM NaCl, 20 mM Tris, 1 mM EDTA) and reference compound NaTFA (0.745 mg/mL)/D2O was added to 5 mm NMR tube. The integrated ratio of PFOB fluorine peaks to NaTFA singlet fluorine peak at −76.00 ppm determined the amount of ^19F in the cell pellet and the ^19F/cell was calculated.
NMR measurements. NMR spectra and relaxation rates were recorded on a Bruker Ascend 400 MHz (9.4 T) spectrometer (Billerica, MA). […] For quantitative peak measurements, spectra were acquired using calibrated 90° pulses, 32,000 complex points, spectral window 0 to −200 ppm, relaxation delay 2.5 s, and 128 averages. […] Relaxation parameters were measured for six middle CF2 peaks of PFOB, spanning ˜10 ppm, which account for 12 out of 17 F atoms in the molecule. […]

Series [2] can be described thus: Kinetics of emulsion metalation with metal salts (UV-Vis). It counts as physicochemical. The protocol: Strong absorbance of aromatic diketone and its complexes permits facile kinetic investigation of metalation rates. In a typical measurement, emulsion from example 4 was diluted to 70 uM diketone (excess ligand, modeling radiolabeling conditions) into a solution of chosen pH and treated with 10 uM metal cations of relevance to medical imaging, including Fe^3+ (MRI), Cu^2+ (PET), Ga^3+ (PET, SPECT), Sc^3+ (PET), and In^3+ (SPECT). In all cases, UV-Vis spectral changes indicative of metal uptake into the fluorous phase were detected, proportional in magnitude to the amount of metal. For some metals, kinetic analysis was performed. The reaction time course fit well to a pseudo-first-order process with rate constant kobs (Table 1).

A short description of series [3]: 19F R1 relaxation leakage test of metalated emulsions with EDTA at 37 °C. It counts as physicochemical. As to conditions: small fluorinated diketones. An excerpt:
Decrease in relaxation rate ^19F R1 would indicate sequestration of Fe^3+ to the aqueous phase, where it is too far from fluorine-19 nuclei to have an effect on ^19F R1.
It may be necessary for sufficient stability to use fluorinated diketones with heavily fluorinated substituents that are well-miscible with other fluorinated agents known in the art to be useful for ^19F MRI.

The conditions of series [4]: cited from earlier work.
For series [5] the following is noted: 3 T; cited from earlier work.
Series [6] is described as follows: Intermolecular 19F NMR relaxometry and susceptibility shift in PFOB. It counts as physicochemical. The following applies: neat PFOB. The source says: We screened the impact of various cations bound to SALTAME 5a and dissolved in PFOB via NMR relaxometry and susceptibility shift measurements (Table 4). Of the period-4 cations tested (V3+, Cr3+, Mn2+, Fe3+, Co2+, Cu2+, Ni2+, Zn2+, Ga3+), only Mn4+, Fe3+, Co3+, and Ga3+ formed stable and separable (by column chromatography) chelates with SALTAME. […] The diamagnetic Ga3+ chelate had little relaxation effects or shift for PFOB. […] Mn4+ changed r1, r2 and susceptibility shift, but to a much lesser extent than Fe3+.
The longitudinal and transverse ^19F relaxation rates of the Fe3+ chelate, 5a POP, was further evaluated as a function of iron concentration at the clinically-relevant field strength of 3 T yielding relaxivities r1 and r2 of 0.56 s−1 mM−1 and 1.67 s−1 mM−1, respectively, compared to 0.50 s−1 mM−1 and 1.07 s−1 mM−1 values of r1 and r2 at 9.4 T, respectively. […]
NMR spectra and relaxation rates were recorded on a Bruker Ascend 400 MHz (9.4 T) spectrometer (Billerica, MA). […] For quantitative peak measurements, spectra were acquired using calibrated 90° pulses, 32,000 complex points, spectral window 0 to −200 ppm, relaxation delay 2.5 s, and 128 averages. […] Relaxation parameters were measured for six middle CF2 peaks of PFOB, spanning ˜10 ppm, which account for 12 out of 17 F atoms in the molecule. […]

The subject of a further series is RAW cells. As to the kind of experiment: NAO flow cytometry assay for cytotoxicity (apoptosis). As to conditions: 16 h labeling, compared to unlabeled cells. The class given is cell-based, murine. How it is done: We investigated the potential effect of P-PFOB labeling on RAW cell viability and phenotype (FIG. 4A-FIG. 4D). To study cytotoxicity, we used a flow cytometry assay for apoptosis (FIGS. 4A-4C) using 10-N-nonyl acridine orange (NAO).^20 As a positive control to induce oxidative stress, 10% ethanol was added to the cell media. […] Side-scatter is routinely used in flow cytometry to distinguish cell types by granularity. Labeled cells often display increased granularity with internalization of PFC droplets. To assay cell phenotype, we used flow cytometry to monitor potential changes in cell surface CD86 expression as a marker for macrophage activation, where increased levels indicated a pro-inflammatory response to label. Lipopolysaccharide (LPS) treatment was used as a positive control to induce a pro-inflammatory phenotype.
Viability assay. 10-N-nonyl acridine orange (NAO) was obtained from Invitrogen (A1372, Carlsbad, CA). NE labeled and control RAW cells were stained with 100 ng/ml of NAO for 15 minutes followed by washes according to manufacturer's instructions. As a positive control, cells were stressed by incubation with 10% ethanol at 37° C. containing 5% CO2 for 90 minutes before NAO staining. Green fluorescence from NAO dye (emission max at 520 nm) was detected using flow cytometry (LSR Fortessa, BD Biosciences).

Setting [7] is: final [M3+] 10 uM, final [ligand] 70 uM, pH 2.1 (8 mM HCl).

Turning to `O=Cc1cc(C(F)(F)C(F)(F)C(F)(F)C(F)(F)C(F)(F)C(F)(F)F)ccc1O` [3a, 5-Perfluorohexyl-salicylaldehyde], in series [1], the “R1 (intramolecular 19F)” value stood at 1.33 ± 0.01 s⁻¹ and the “R2 (intramolecular 19F)” value was found to be 1.75 ± 0.01 s⁻¹.
With `O=Cc1cccc(C(F)(F)C(F)(F)C(F)(F)C(F)(F)C(F)(F)C(F)(F)F)c1O` [3b, 3-Perfluorohexyl-salicylaldehyde], in series [1], the “R1 (intramolecular 19F)” value turned out to be 0.87 ± 0.01 s⁻¹ and the “R2 (intramolecular 19F)” value is 1.12 ± 0.01 s⁻¹.
With `[Cl][Fe]([Cl])[Cl]` [FeCl3], the kobs in series [2] (final [M3+] 5 uM, final [ligand] 70 uM, pH 2.1 (8 mM HCl)) was determined as 0.79 min⁻¹; in series [2] (setting [7]), 0.70 min⁻¹.
For `[Cl][Ga]([Cl])[Cl]` [GaCl3], in series [2] (setting [7]), the kobs amounted to 0.043 min⁻¹.
On to `O=C(CC(=O)C(F)(F)F)c1ccccc1` [H-bta], for which, in series [3], the enhancing relaxation result is “highly effective”; the “stability under EDTA competition and cell labeling” value (from here on “stability”) is “not stable enough”.
In the same order, the values of `CC(C)(C)C(=O)CC(=O)C(F)(F)C(F)(F)C(F)(F)F` [H-fod] are “highly effective” and “not stable enough”.
The matching figures for `O=C(CC(=O)C(F)(F)F)C(F)(F)F` [H-hfp]: “highly effective” and “not stable enough”.
In the same order, the values of `C/C(O)=C/C(=O)C(F)(F)C(F)(F)C(F)(F)F` [H-hhd] are “highly effective” and “not stable enough”.
For `C/C(O)=C/C(=O)C(F)(F)C(F)(F)C(F)(F)C(F)(F)C(F)(F)C(F)(F)F` [H-tdd], in series [3], the enhancing relaxation entry is on record as “highly effective”; the “stability” value was “not stable enough”.
Take `O=C(CC(=O)C(F)(F)F)c1cccs1` [H-tta]: in series [3], the enhancing relaxation entry is given as “highly effective”; the “stability” value was “not stable enough”.
With `[Cl-].[Cl-].[Cl-].[In+3]` [InCl3], the kobs in series [2] (final [M3+] 2 uM, final [ligand] 14 uM, pH ~5 (unbuffered H2O)) is greater than 10 min⁻¹; in series [2] (final [M3+] 10 uM, final [ligand] 70 uM, pH 7.4 HEPES) it was 0.0322 min⁻¹.
In the case of `FC1(F)OC(F)(F)C(F)(F)OC(F)(F)C(F)(F)OC(F)(F)C(F)(F)OC(F)(F)C(F)(F)OC1(F)F` [PFCE, perfluoro-15-crown-5-ether], in series [4], the “half-life in vivo (body)” value was greater than 100 days. The T1 in series [5] is roughly 0.9 ms.
Regarding `FC(F)(F)C(F)(F)C(F)(F)C(F)(F)C(F)(F)C(F)(F)C(F)(F)C(F)(F)Br` [PFOB, perfluorooctylbromide], the “half-life in vivo (body)” value in series [4] is 3 to 8 days. Moreover, the T1 in series [5] is roughly 1200 ms. The R1 in series [6] (3 T) came to 0.79 s⁻¹; in series [6] (9.4 T), 1.4 s⁻¹.
Consider `CCO` [ethanol], for which the “cytotoxicity (NAO apoptosis assay)” value in the series with RAW cells was “display cytotoxicity”.
